Experimental data as given in the supplement of paper PMC13380429.

How the values were obtained:
Settings in all cases: 72 h
Caco-2 [1] = test: relative viability EC50 (midpoint between 100% and the lowest measured viability); higher = less toxic
U2OS [2] = test: as above
Vero E6 [3] = test: as above
Calu-3 [4] = test: as above
Caco-2 [5] = test: cell viability relative to DMSO; higher = less toxic
U2OS [6] = test: as above
Vero E6 [7] = test: as above
Calu-3 [8] = test: as above
Caco-2 [9] = test: drug sensitivity score (DSS) for viability; higher = more toxic; extreme values may be limits of the assay
U2OS [10] = test: as above
Vero E6 [11] = test: as above
Calu-3 [12] = test: as above
HepG2 [13] = test: relative viability EC50 (midpoint between 100% and the lowest measured viability); higher = less toxic
HepG2 [14] = test: cell viability relative to DMSO; higher = less toxic
HepG2 [15] = test: drug sensitivity score (DSS) for viability; higher = more toxic; extreme values may be limits of the assay

Row | SMILES | relative viability EC50 (Caco-2 [1]) [µM] | relative viability EC50 (U2OS [2]) [µM] | relative viability EC50 (Vero E6 [3]) [µM] | relative viability EC50 (Calu-3 [4]) [µM] | cell viability (Caco-2 [5]; 1 nM) [%] | cell viability (Caco-2 [5]; 10 nM) [%] | cell viability (Caco-2 [5]; 100 nM) [%] | cell viability (Caco-2 [5]; 1000 nM) [%] | cell viability (Caco-2 [5]; 10000 nM) [%] | cell viability (U2OS [6]; 1 nM) [%] | cell viability (U2OS [6]; 10 nM) [%] | cell viability (U2OS [6]; 100 nM) [%] | cell viability (U2OS [6]; 1000 nM) [%] | cell viability (U2OS [6]; 10000 nM) [%] | cell viability (Vero E6 [7]; 1 nM) [%] | cell viability (Vero E6 [7]; 10 nM) [%] | cell viability (Vero E6 [7]; 100 nM) [%] | cell viability (Vero E6 [7]; 1000 nM) [%] | cell viability (Vero E6 [7]; 10000 nM) [%] | cell viability (Calu-3 [8]; 1 nM) [%] | cell viability (Calu-3 [8]; 10 nM) [%] | cell viability (Calu-3 [8]; 100 nM) [%] | cell viability (Calu-3 [8]; 1000 nM) [%] | cell viability (Calu-3 [8]; 10000 nM) [%] | drug sensitivity score (Caco-2 [9]) | drug sensitivity score (U2OS [10]) | drug sensitivity score (Vero E6 [11]) | drug sensitivity score (Calu-3 [12]) | relative viability EC50 (HepG2 [13]) [µM] | cell viability (HepG2 [14]; 1 nM) [%] | cell viability (HepG2 [14]; 10 nM) [%] | cell viability (HepG2 [14]; 100 nM) [%] | cell viability (HepG2 [14]; 1000 nM) [%] | cell viability (HepG2 [14]; 10000 nM) [%] | drug sensitivity score (HepG2 [15])
1 | O=C(O)[C@H]1O[C@@H](Oc2cc3oc(-c4ccccc4)cc(=O)c3c(O)c2O)[C@H](O)[C@@H](O)[C@@H]1O [baicalin] | > 10 | > 10 | > 10 | > 10 | 109 | 99 | 95.7 | 93.3 | 97.5 | 105 | 93.2 | 104 | 101 | 91.8 | 99.7 | 103 | 102 | 103 | 102 | 103 | 98.5 | 90.4 | 104 | 109 | 0 | 0 | 0 | 0 | – | – | – | – | – | – | –
2 | CSc1nc(NC2CCCC2)c([N+](=O)[O-])c(NC2CCCC2)n1 | > 10 | > 10 | > 10 | > 10 | 99 | 97 | 102 | 93.7 | 95.7 | 102 | 103 | 98.9 | 106 | 97.2 | 110 | 98.3 | 107 | 96.4 | 97 | 94.6 | 94.2 | 106 | 96.9 | 90.1 | 0 | 0 | 0 | 0 | – | – | – | – | – | – | –
3 | O=C(O)[C@H](O)[C@@H](O)[C@H](O[C@@H]1O[C@H](CO)[C@H](O)[C@H](O)[C@H]1O)[C@H](O)CO [maltobionic-acid] | > 10 | > 10 | > 10 | > 10 | 89.3 | 101 | 85.6 | 97.9 | 115 | 93.6 | 103 | 97.8 | 102 | 101 | 94.3 | 89.8 | 94.4 | 88 | 101 | 103 | 106 | 101 | 100 | 99.7 | 0 | 0 | 0 | 0 | – | – | – | – | – | – | –
4 | Cc1ncc(CO)c(/C=N/NC(=O)c2ccncc2)c1O [pyridoxal-isonicotinoyl-hydrazone] | > 10 | > 10 | > 10 | > 10 | 102 | 108 | 93.3 | 100 | 100 | 95.8 | 97.4 | 95.8 | 93 | 102 | 100 | 94.2 | 92.5 | 97.4 | 109 | 90.1 | 99.4 | 102 | 103 | 92 | 0 | 0 | 0 | 0 | – | – | – | – | – | – | –
5 | CN1CCc2cc3c(cc2[C@H]1[C@@H]1OC(=O)c2c1ccc1c2OCO1)OCO3 [bicuculline-(+)] | > 10 | > 10 | > 10 | – | 93.2 | 86.7 | 96.4 | 96.5 | 100 | 97.4 | 96.1 | 97.6 | 99.5 | 99.8 | 95.2 | 98.6 | 94.7 | 102 | 104 | – | – | – | – | – | 0 | 0 | 0 | – | > 10 | 91.1 | 98.3 | 88.8 | 97.8 | 106 | 0
6 | CCOC(=O)c1c(O)nc2cccc3c2c1-c1ccccc1C3=O [NQDI-1] | > 10 | > 10 | > 10 | > 10 | 89.6 | 103 | 89.7 | 92.9 | 98.3 | 95.6 | 101 | 102 | 97.7 | 101 | 104 | 103 | 102 | 95.9 | 94 | 91.5 | 96.8 | 95.7 | 95.2 | 104 | 0 | 0 | 0 | 0 | – | 106 | 102 | 98.4 | 76 | 57.2 | 5
7 | CO/N=C(\C(=O)N[C@@H]1C(=O)N2C(C(=O)O)=C(COC(N)=O)CS[C@H]12)c1ccco1 [CEFUROXIME SODIUM] | > 10 | > 10 | > 10 | – | 106 | 90.6 | 98.6 | 107 | 99.4 | 97.3 | 95 | 96.8 | 98.7 | 103 | 101 | 95.6 | 97.6 | 95.1 | 110 | – | – | – | – | – | 0 | 0 | 0 | – | > 10 | 97.7 | 109 | 95.4 | 97.8 | 103 | 0
8 | O=C(O)c1cc(O)c2c(c1)[C@H]([C@H]1c3cc(C(=O)O)cc(O)c3C(=O)c3c(O[C@@H]4O[C@H](CO)[C@@H](O)[C@H](O)[C@H]4O)cccc31)c1cccc(O[C@@H]3O[C@H](CO)[C@@H](O)[C@H](O)[C@H]3O)c1C2=O [sennoside-A] | > 10 | > 10 | > 10 | – | 79.8 | 100 | 88 | 82.1 | 123 | 94 | 100 | 96.5 | 96.6 | 88.3 | 112 | 93.1 | 95.9 | 98.8 | 101 | 95.3 | 96.8 | 90.1 | 91 | 67.3 | 0 | 0 | 0 | 2.3 | > 10 | 90.2 | 91.7 | 89.6 | 103 | 92.4 | 0
9 | O=c1n(CC2CO2)c(=O)n(CC2CO2)c(=O)n1CC1CO1 (configuration not stated) [teroxirone] | > 10 | > 10 | > 10 | > 10 | 102 | 101 | 95.6 | 93.2 | 84.3 | 103 | 95.7 | 104 | 102 | 96.2 | 100 | 105 | 98.5 | 102 | 80.8 | 94.4 | 91.2 | 99.3 | 84.1 | 90.9 | 0.4 | 0 | 0.4 | 0 | – | 99.9 | 100 | 92.8 | 91.1 | 51.8 | 4
10 | O/N=C/c1ccc(-c2ccc(O)c(F)c2)c(Cl)c1O [FERb-033] | > 10 | > 10 | > 10 | > 10 | 98.1 | 95.2 | 93.4 | 91.9 | 81.4 | 102 | 97.1 | 99.5 | 96.9 | 93.9 | 97.7 | 106 | 98.8 | 103 | 95.7 | 104 | 101 | 100 | 98.9 | 84.8 | 0.8 | 0 | 0 | 0.3 | – | 95.7 | 104 | 100 | 99.8 | 71.1 | 1.2
11 | O=C(O)c1ccc(Nc2ncc3c(n2)-c2ccc(Cl)cc2C(c2c(F)cccc2F)=NC3)cc1 [MLN8054] | > 10 | > 10 | > 10 | > 10 | 94.4 | 100 | 87 | 82 | 82.5 | 103 | 105 | 100 | 90 | 76.7 | 103 | 97.9 | 104 | 91.7 | 82.7 | 96.2 | 96.2 | 112 | 91.3 | 86.8 | 3.3 | 2 | 1.1 | 0.6 | – | 109 | 108 | 96.7 | 73.2 | 62.3 | 5.1
12 | C#C[C@]1(O)CC[C@H]2[C@@H]3CCc4cc(O)ccc4[C@H]3CC[C@@]21C [ETHINYL ESTRADIOL] | > 10 | > 10 | > 10 | > 10 | 97.2 | 102 | 99.5 | 99.4 | 85.7 | 97.7 | 105 | 98.8 | 102 | 92.9 | 97.7 | 98.1 | 94.2 | 92.9 | 102 | 100 | 100 | 88.4 | 94.3 | 96.4 | 0.2 | 0 | 0 | 0 | – | 97.3 | 98 | 99.8 | 90.8 | 65.7 | 3
